In PubChem BioAssay AID1918953 (Molecular Pharmacology Branch, DTP, NCI, 2023):
Values joined by “and” are separate entries in the source; they are usually repeats but may differ in a detail not shown here. Identical values can stand only once.

Test system: MDA-MB-231 complex spheroid viability
Assay: Anticancer human tumor MDA-MB-231/ATCC cell line growth inhibition;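 also: drug exposure lasted 7 days starting on day 3 of spheroid growth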
Settings: for viability, T/C: stronger effect = lower value
Description: Multicellular complex tumor spheroid response to LSD1 Inhibitor Iadademstat in combination with a variety of drugs and investigational agents in selected tumor cell lines
The current study was undertaken to assess response to LSD1 inhibitors in combination with standard-of-care drugs and investigational agents in solid tumor complex spheroid models as well as in the K-562 leukemia. Complex spheroids include a stromal component modeled by human endothelial cells (HUVEC) and fibroblasts modeled by human mesenchymal stem cells (MSCs). The concentration ranges selected for each drug and investigational agent were based upon clinically achievable concentrations if the clinical Cmax of the agent was known.
Compounds. The drugs and investigational agents used in this study are listed on Table 1. All of the agents used, including staurosporine (NSC755774) and gemcitabine (NSC613327), were obtained from the Developmental Therapeutics Program, NCI. FDA-approved anticancer drugs are available from the NCI at http://dtp.nci.nih.gov/branches/dscb/oncology_drugset_explanation.html. Drugs and investigational agents were >95% pure by proton nuclear magnetic resonance (NMR) and liquid chromatography/mass spectrometry (LC/MS). Stock solutions were prepared at 400x in DMSO, stored at -70 degrees C, and diluted in fresh medium prior to their use. The final concentration of DMSO in cell culture wells never exceeded 0.25% (v/v). The FDA-approved anticancer drug set is available from the Developmental Therapeutics Program at https://dtp.cancer.gov/organization/dscb/obtaining/available_plates.htm. All drugs and investigational agents were tested over a range starting from a high concentration at or near the clinical Cmax and decreasing in half-log increments. If the clinical Cmax for an agent had not been determined, the highest concentration tested was 10 microM.
Cell Lines. The patient-derived cancer cell (PDC) lines: 292921-168-R-J2-PDC, K24384-001-R-PDC, and 521955-158-R2-J5-PDC pancreatic carcinomas, 556581-035-R-J1 ovarian carcinoma, 324938-238-R-J1-PDC, 855422-203-R-J1-PDC and 883617-216-R-J1-PDC urothelial bladder carcinomas, 743489-274-T-PDC renal cell carcinoma, 138582-R-J1 Merkel cell tumor, K60290-347-R-J1 and K57222-313-R-J1-PDC glioblastomas, 653999-131-R-J2-PDC, LG0703-F948-PDC, and 349418-098-R-PDC non-small cell lung carcinomas, 885512-296-R-J2-PDC, 171881-019-R-J1-PDC breast carcinomas and 186277-243-T-J2-PDC and 233499-124-R-J2-PDC colon carcinomas were obtained from the NCI Patient-Derived Models Repository (PDMR, https://pdmr.cancer.gov). The established cell lines NCI/ADR-RES (RRID:CVCL_14520 and OVCAR-5 (RRID:CVCL_1628) ovarian carcinomas, 786-O (RRID:CVCL_1051) and A498 (RRID:CVCL_A498) renal cell carcinoma, NCI-H211 (ATCC, cat. CRL-5824; RRID:CVCL_1529), NCI-H196 (ATCC, cat. CRL-5823, RRID:CVCL_1509), SW 1271 (ATCC, cat. CRL-2177, RRID:CVCL_1716) and NCI-H1876 (ATCC, cat. CRL-5902, RRID:CVCL_1503) small cell lung carcinomas, MDA-MB-231 (RRID:CVCL_0062) and MDA-MB-468 (RRID:CVCL_0419)breast carcinomas (10-12). Pooled donor human umbilical vein endothelial cells (HUVEC, Lonza, cat. CC-2519) and human mesenchymal stem cells (hMSC, Lonza, cat. PT-2501) were purchased from Lonza (Walkersville, MD).
Cell Culture. All cells were maintained in an incubator at 37 degrees C and 5% CO2 with 95% humidity. The PDC lines were cultured according to standard operating procedures established by the NCI PDMR (https://pdmr.cancer.gov). Briefly all PDCs were thawed and cultured in Matrigel-coated flasks prepared with a working solution of 1X Ham's F-12 nutrient mix, without supplementation (Invitrogen, Waltham, MA, cat. 11765054), 100 U/mL penicillin-streptomycin (Invitrogen, cat. 15140122), and 2.5% Matrigel (Corning Inc., Corning, NY, cat. 354248) for the first three passages. […]

[1] = curve of first compound, second compound 0.1 µM
[2] = curve of first compound, second compound 0.316 µM
[3] = curve of first compound, second compound 1 µM
[4] = curve of first compound, second compound 3.16 µM
[5] = curve of first compound, second compound 10 µM
[6] = second compound 0.1 µM, first compound 0.00949 µM
[7] = second compound 0.1 µM, first compound 0.03 µM
[8] = second compound 0.1 µM, first compound 0.0949 µM
[9] = second compound 0.1 µM, first compound 0.3 µM
[10] = second compound 0.1 µM, first compound 0.949 µM
[11] = second compound 0.1 µM, first compound 3 µM
[12] = second compound 0.316 µM, first compound 0.00949 µM
[13] = second compound 0.316 µM, first compound 0.03 µM
[14] = second compound 0.316 µM, first compound 0.0949 µM
[15] = second compound 0.316 µM, first compound 0.3 µM
[16] = second compound 0.316 µM, first compound 0.949 µM
[17] = second compound 0.316 µM, first compound 3 µM
[18] = second compound 1 µM, first compound 0.00949 µM
[19] = second compound 1 µM, first compound 0.03 µM
[20] = second compound 1 µM, first compound 0.0949 µM
[21] = second compound 1 µM, first compound 0.3 µM
[22] = second compound 1 µM, first compound 0.949 µM
[23] = second compound 1 µM, first compound 3 µM
[24] = second compound 3.16 µM, first compound 0.00949 µM
[25] = second compound 3.16 µM, first compound 0.03 µM
[26] = second compound 3.16 µM, first compound 0.0949 µM
[27] = second compound 3.16 µM, first compound 0.3 µM
[28] = second compound 3.16 µM, first compound 0.949 µM
[29] = second compound 3.16 µM, first compound 3 µM
[30] = second compound 10 µM, first compound 0.00949 µM
[31] = second compound 10 µM, first compound 0.03 µM
[32] = second compound 10 µM, first compound 0.0949 µM
[33] = second compound 10 µM, first compound 0.3 µM
[34] = second compound 10 µM, first compound 0.949 µM
[35] = second compound 10 µM, first compound 3 µM

`CCN(c1cc(-c2ccc(CN3CCOCC3)cc2)cc(C(=O)NCc2c(C)cc(C)[nH]c2=O)c1C)C1CCOCC1` + NC1CC1c1ccc(-c2cccc(O)c2)cc1 gave an IC50 [1] of 143 nM, an IC50 [2] of 99.7 nM and an IC50 [3] of 99.7 nM. The IC50 [4] was 92 nM, the IC50 [5] was 13.1 nM and the viability, T/C [6] was 89.6%. For the same compound, the viability, T/C [7] was 82%, the viability, T/C [8] was 51.3% and the viability, T/C [9] was 40%. The viability, T/C [10] was 27.8%, the viability, T/C [11] was 17.8% and the viability, T/C [12] was 73.1%. The viability, T/C [13] was 70.2%, the viability, T/C [14] was 46.2% and the viability, T/C [15] was 36.4%. The viability, T/C [16] was 25.2%, the viability, T/C [17] was 16.6% and the viability, T/C [18] was 68.2%. The viability, T/C [19] was 69.7%, the viability, T/C [20] was 46.7% and the viability, T/C [21] was 35.1%. The viability, T/C [22] was 23.9%, the viability, T/C [23] was 17.1% and the viability, T/C [24] was 72.5%. For the same compound, the viability, T/C [25] was 71.6%, the viability, T/C [26] was 44.7% and the viability, T/C [27] was 34.3%. The viability, T/C [28] was 21.8%, the viability, T/C [29] was 16.6% and the viability, T/C [30] was 52.6%. The viability, T/C [31] was 43.1%, the viability, T/C [32] was 34.3% and the viability, T/C [33] was 24.6%. The viability, T/C [34] was 16.8% and the viability, T/C [35] was 12.2%.
`NS(=O)(=O)OCC1CC(n2ccc3c(NC4CCc5ccccc54)ncnc32)CC1O` (stereo not drawn) was tested, and the viability, T/C (compound 0.00949 µM) was 140% and 117%, the viability, T/C (compound 0.03 µM) was 119% and 91% and the viability, T/C (compound 0.0949 µM) was 71.6% and 43.9%. The viability, T/C (compound 0.3 µM) was 43.7% and 22.5%, the viability, T/C (compound 0.949 µM) was 37.5% and 26.5% and the viability, T/C (compound 3 µM) was 34.5% and 26.1%. For the same compound, the IC50 (curve of compound) was 230 nM and 79.9 nM.
Compound `COc1cc(C2c3cc4c(cc3C(OC3OC5COC(C)OC5C(O)C3O)C3COC(=O)C23)OCO4)cc(OC)c1O` (stereo not drawn) + NC1CCC(NC2CC2c2ccccc2)CC1 has an IC50 [1] of 153 nM, an IC50 [2] of 146 nM and an IC50 [3] of 130 nM. It also gave an IC50 [4] of 85.3 nM, an IC50 [5] of 47.5 nM and a viability, T/C [6] of 93.9%. It also gave a viability, T/C [7] of 79.8%, a viability, T/C [8] of 56.2% and a viability, T/C [9] of 41.6%. It also gave a viability, T/C [10] of 15.6%, a viability, T/C [11] of 8.25% and a viability, T/C [12] of 98.8%. It also gave a viability, T/C [13] of 79.2%, a viability, T/C [14] of 56.1% and a viability, T/C [15] of 40.7%. For the same compound, the viability, T/C [16] was 16.8%, the viability, T/C [17] was 9.41% and the viability, T/C [18] was 91.1%. It also gave a viability, T/C [19] of 73.1%, a viability, T/C [20] of 56% and a viability, T/C [21] of 37.6%. The viability, T/C [22] was 18.3%, the viability, T/C [23] was 10.5% and the viability, T/C [24] was 79.6%. For the same compound, the viability, T/C [25] was 60.5%, the viability, T/C [26] was 50.1% and the viability, T/C [27] was 38.2%. The viability, T/C [28] was 17.8%, the viability, T/C [29] was 13.3% and the viability, T/C [30] was 59.5%. It also gave a viability, T/C [31] of 52.3%, a viability, T/C [32] of 44.4% and a viability, T/C [33] of 33%. For the same compound, the viability, T/C [34] was 17.7% and the viability, T/C [35] was 14.4%.
`CC(C)CC(NC(=O)C(Cc1ccccc1)NC(=O)c1cnccn1)B(O)O` (stereo not drawn) was tested, and the viability, T/C (compound 0.000316 µM) was 104% and 34.9%, the viability, T/C (compound 0.00316 µM) was 1.86% and 0.16% and the viability, T/C (compound 0.01 µM) was 0.35% and 0.17%. The viability, T/C (compound 0.0316 µM) was 0.31% and 0.14%, the viability, T/C (compound 0.1 µM) was 0.31% and 0.17% and the IC50 (curve of compound) was 1.09 nM and < 0.316 nM.
`Nc1ncn(C2CC(O)C(CO)O2)c(=O)n1` (stereo not drawn) + NC1CC1c1ccc(-c2cccc(O)c2)cc1 was tested, and the IC50 [1] was over 1000 nM, the IC50 [2] was 560 nM and the IC50 [3] was 183 nM. It also gave an IC50 [4] of 251 nM, an IC50 [5] of under 3.16 nM and a viability, T/C (second compound 0.1 µM, first compound 0.00316 µM) of 74.5%. It also gave a viability, T/C (second compound 0.1 µM, first compound 0.01 µM) of 75.8%, a viability, T/C (second compound 0.1 µM, first compound 0.0316 µM) of 76.2% and a viability, T/C (second compound 0.1 µM, first compound 0.1 µM) of 66.8%. For the same compound, the viability, T/C (second compound 0.1 µM, first compound 0.316 µM) was 55%, the viability, T/C (second compound 0.1 µM, first compound 1 µM) was 56% and the viability, T/C (second compound 0.316 µM, first compound 0.00316 µM) was 70.4%. For the same compound, the viability, T/C (second compound 0.316 µM, first compound 0.01 µM) was 63.5%, the viability, T/C (second compound 0.316 µM, first compound 0.0316 µM) was 61.4% and the viability, T/C (second compound 0.316 µM, first compound 0.1 µM) was 51.8%. It also gave a viability, T/C (second compound 0.316 µM, first compound 0.316 µM) of 50.9%, a viability, T/C (second compound 0.316 µM, first compound 1 µM) of 49.6% and a viability, T/C (second compound 1 µM, first compound 0.00316 µM) of 60.5%. The viability, T/C (second compound 1 µM, first compound 0.01 µM) was 58.4%, the viability, T/C (second compound 1 µM, first compound 0.0316 µM) was 57.3% and the viability, T/C (second compound 1 µM, first compound 0.1 µM) was 50.4%. For the same compound, the viability, T/C (second compound 1 µM, first compound 0.316 µM) was 47.7%, the viability, T/C (second compound 1 µM, first compound 1 µM) was 45% and the viability, T/C (second compound 3.16 µM, first compound 0.00316 µM) was 70.2%. For the same compound, the viability, T/C (second compound 3.16 µM, first compound 0.01 µM) was 63.4%, the viability, T/C (second compound 3.16 µM, first compound 0.0316 µM) was 60.6% and the viability, T/C (second compound 3.16 µM, first compound 0.1 µM) was 53.3%. It also gave a viability, T/C (second compound 3.16 µM, first compound 0.316 µM) of 49.6%, a viability, T/C (second compound 3.16 µM, first compound 1 µM) of 43.7% and a viability, T/C (second compound 10 µM, first compound 0.00316 µM) of 49.7%. For the same compound, the viability, T/C (second compound 10 µM, first compound 0.01 µM) was 45.3%, the viability, T/C (second compound 10 µM, first compound 0.0316 µM) was 43.9% and the viability, T/C (second compound 10 µM, first compound 0.1 µM) was 41.5%. For the same compound, the viability, T/C (second compound 10 µM, first compound 0.316 µM) was 40.3% and the viability, T/C (second compound 10 µM, first compound 1 µM) was 37.1%.
